What was measured:
Format in all cases: in vivo
rice (Oryza sativa) = assay: Test B flooded paddy test, rice; conditions: 250 g ai/ha, Flood; visual rating after 13 to 15 days; scale 0 to 100, 0 is no effect, 100 is complete control
Outline: (§1)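 Visual injury scored 0 (no effect) to 100 (complete control) relative to controls 13-15 days after treatment in greenhouse. Treatment: test compound added into paddy water of pots flooded 3 cm over soil, holding 2-leaf-stage plants; water level kept constant.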

[1] = tested on: blackgrass (Alopecurus myosuroides); assay: Test A postemergence, blackgrass
Outline: (§2)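 Compounds, formulated in a surfactant-containing solvent mixture that is non-phytotoxic, are sprayed onto soil after seeding (preemergence) or onto young plants, one to two leaves and 2 to 10 cm high (postemergence). Response is scored visually after around 10 days, where 0 means no effect and 100 means complete control.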

[2] = tested on: barnyardgrass (Echinochloa crus-galli); assay: Test A preemergence, barnyardgrass; conditions: Preemergence, 0 to 100 scale (0 no effect, 100 complete control)
Outline: as §2

[3] = tested on: ragweed (common ragweed, Ambrosia elatior); assay: Test A preemergence, ragweed; conditions: Preemergence, 0 to 100 scale (0 no effect, 100 complete control)
Outline: as §2

[4] = tested on: galium (catchweed bedstraw, Galium aparine); assay: Test A postemergence, galium
Outline: as §2

[5] = tested on: ragweed (common ragweed, Ambrosia elatior); assay: Test A postemergence, ragweed
Outline: as §2

kochia (Kochia scoparia) [6] = assay: Test A postemergence, kochia
Outline: as §2

[7] = tested on: sedge, umbrella (small-flower umbrella sedge, Cyperus difformis); assay: Test B flooded paddy test, umbrella sedge; conditions: 250 g ai/ha, Flood; visual rating after 13 to 15 days; scale 0 to 100, 0 is no effect, 100 is complete control
Outline: as §1

[8] = tested on: wheat (Triticum aestivum); assay: Test A postemergence, wheat
Outline: as §2

[9] = tested on: ryegrass, Italian (Italian ryegrass, Lolium multiflorum); assay: Test A preemergence, Italian ryegrass; conditions: Preemergence, 0 to 100 scale (0 no effect, 100 complete control)
Outline: as §2

[10] = tested on: pigweed (Amaranthus retroflexus); assay: Test A postemergence, pigweed
Outline: as §2

kochia (Kochia scoparia) [11] = assay: Test A preemergence, kochia; conditions: Preemergence, 0 to 100 scale (0 no effect, 100 complete control)
Outline: as §2

[12] = tested on: ducksalad (Heteranthera limosa); assay: Test B flooded paddy test, ducksalad; conditions: 250 g ai/ha, Flood; visual rating after 13 to 15 days; scale 0 to 100, 0 is no effect, 100 is complete control
Outline: as §1

[13] = tested on: barnyardgrass (Echinochloa crus-galli); assay: Test B flooded paddy test, barnyardgrass; conditions: 250 g ai/ha, Flood; visual rating after 13 to 15 days; scale 0 to 100, 0 is no effect, 100 is complete control
Outline: as §1

[14] = tested on: pigweed (Amaranthus retroflexus); assay: Test A preemergence, pigweed; conditions: Preemergence, 0 to 100 scale (0 no effect, 100 complete control)
Outline: as §2

[15] = tested on: barnyardgrass (Echinochloa crus-galli); assay: Test A postemergence, barnyardgrass
Outline: as §2

corn (Zea mays) = assay: Test A postemergence, corn
Outline: as §2

[16] = tested on: ryegrass, Italian (Italian ryegrass, Lolium multiflorum); assay: Test A postemergence, Italian ryegrass
Outline: as §2

[17] = tested on: foxtail, giant (giant foxtail, Setaria faberii); assay: Test A preemergence, giant foxtail; conditions: Preemergence, 0 to 100 scale (0 no effect, 100 complete control)
Outline: as §2

[18] = tested on: foxtail, giant (giant foxtail, Setaria faberii); assay: Test A postemergence, giant foxtail
Outline: as §2

[19] = 125 g ai/ha, postemergence, 0 to 100 scale, 0 is no effect, 100 is complete control, approximately 10 days
[20] = Postemergence, 31 g ai/ha, 0 to 100 scale (0 no effect, 100 complete control)
[21] = 31 g ai/ha, postemergence, 0 to 100 scale, 0 is no effect, 100 is complete control, approximately 10 days
[22] = 500 g ai/ha, postemergence, 0 to 100 scale, 0 is no effect, 100 is complete control, approximately 10 days

Row | SMILES | Plant response rating, Rice (rice (Oryza sativa)) | Plant response rating, Blackgrass [1, 19] | Plant response rating, Barnyardgrass ([2]; 125 g ai/ha) | Plant response rating, Ragweed ([3]; 125 g ai/ha) | Plant response rating, Galium [4, 19] | Plant response rating, Ragweed [5, 19] | Plant response rating, Kochia (kochia (Kochia scoparia) [6]; [19]) | Plant response rating, Sedge, Umbrella [7] | Plant response rating, Wheat [8, 19] | Plant response rating, Ryegrass, Italian ([9]; 125 g ai/ha) | Plant response rating, Pigweed [10, 19] | Plant response rating, Kochia (kochia (Kochia scoparia) [11]; 125 g ai/ha) | Plant response rating, Ducksalad [12] | Plant response rating, Barnyardgrass [13] | Plant response rating, Pigweed ([14]; 125 g ai/ha) | Plant response rating, Barnyardgrass [15, 19] | Plant response rating, Corn (corn (Zea mays); [19]) | Plant response rating, Ryegrass, Italian [16, 19] | Plant response rating, Foxtail, Giant ([17]; 125 g ai/ha) | Plant response rating, Foxtail, Giant [18, 19] | other results
1 | CCC(=O)COc1c(Br)cccc1Oc1ncc(Cl)cn1 [Compound 76] | 10 | 10 | 40 | 0 | 20 | 0 | 10 | 70 | 0 | 10 | 30 | 0 | 90 | 10 | 80 | 20 | 10 | 0 | 70 | 40 | Plant response rating, Blackgrass [1, 20]: 0; Plant response rating, Barnyardgrass ([2]; 31 g ai/ha): 20; Plant response rating, Ragweed ([3]; 31 g ai/ha): 0; Plant response rating, Galium [4, 20]: 10; Plant response rating, Ragweed [5, 20]: 0; Plant response rating, Kochia (kochia (Kochia scoparia) [6]; [20]): 0; Plant response rating, Wheat [8, 20]: 0; Plant response rating, Ryegrass, Italian ([9]; 31 g ai/ha): 0; Plant response rating, Pigweed [10, 20]: 10; Plant response rating, Kochia (kochia (Kochia scoparia) [11]; 31 g ai/ha): 0; Plant response rating, Pigweed ([14]; 31 g ai/ha): 0; Plant response rating, Barnyardgrass [15, 20]: 0; Plant response rating, Corn (corn (Zea mays); [20]): 0; Plant response rating, Ryegrass, Italian [16, 20]: 0; Plant response rating, Foxtail, Giant ([17]; 31 g ai/ha): 10; Plant response rating, Foxtail, Giant [18, 20]: 10
2 | N#Cc1cccc(Oc2ncc(Cl)cn2)c1OCCCCC(F)(F)F [Compound 32] | 40 | 50 | 100 | 10 | 100 | 10 | 100 | 100 | 30 | 30 | 100 | 90 | 90 | 30 | 100 | 100 | 20 | 30 | 100 | 80 | Plant response rating, Blackgrass [1, 21]: 30; Plant response rating, Barnyardgrass ([2]; 31 g ai/ha): 30; Plant response rating, Ragweed ([3]; 31 g ai/ha): 0; Plant response rating, Galium [4, 21]: 70; Plant response rating, Ragweed [5, 21]: 10; Plant response rating, Kochia (kochia (Kochia scoparia) [6]; [21]): 100; Plant response rating, Wheat [8, 21]: 20; Plant response rating, Ryegrass, Italian ([9]; 31 g ai/ha): 10; Plant response rating, Pigweed [10, 21]: 100; Plant response rating, Kochia (kochia (Kochia scoparia) [11]; 31 g ai/ha): 30; Plant response rating, Pigweed ([14]; 31 g ai/ha): 100; Plant response rating, Barnyardgrass [15, 21]: 60; Plant response rating, Corn (corn (Zea mays); [21]): 10; Plant response rating, Ryegrass, Italian [16, 21]: 10; Plant response rating, Foxtail, Giant ([17]; 31 g ai/ha): 100; Plant response rating, Foxtail, Giant [18, 21]: 50
3 | N#Cc1cccc(Oc2ncc(F)cn2)c1OCCCF [Compound 30] | 0 | 0 | 20 | 30 | 0 | 10 | 10 | 40 | 0 | 20 | 0 | 90 | 30 | 0 | 80 | 10 | 0 | 40 | 30 | 0 | Plant response rating, Blackgrass [1, 21]: 0; Plant response rating, Barnyardgrass ([2]; 31 g ai/ha): 0; Plant response rating, Ragweed ([3]; 31 g ai/ha): 20; Plant response rating, Galium [4, 21]: 0; Plant response rating, Ragweed [5, 21]: 0; Plant response rating, Kochia (kochia (Kochia scoparia) [6]; [21]): 0; Plant response rating, Wheat [8, 21]: 0; Plant response rating, Ryegrass, Italian ([9]; 31 g ai/ha): 0; Plant response rating, Pigweed [10, 21]: 0; Plant response rating, Kochia (kochia (Kochia scoparia) [11]; 31 g ai/ha): 90; Plant response rating, Pigweed ([14]; 31 g ai/ha): 50; Plant response rating, Barnyardgrass [15, 21]: 0; Plant response rating, Corn (corn (Zea mays); [21]): 0; Plant response rating, Ryegrass, Italian [16, 21]: 30; Plant response rating, Foxtail, Giant ([17]; 31 g ai/ha): 10; Plant response rating, Foxtail, Giant [18, 21]: 0
4 | Fc1cccc(Oc2ncc(Cl)cn2)c1OCCCC(F)(F)F [Compound 27] | 0 | 30 | 90 | 0 | 30 | 0 | 80 | 70 | 0 | 40 | 50 | 70 | 90 | 0 | 90 | 50 | 0 | 0 | 80 | 20 | Plant response rating, Blackgrass [1, 22]: 60; Plant response rating, Barnyardgrass ([2]; 500 g ai/ha): 100; Plant response rating, Ragweed ([3]; 500 g ai/ha): 20; Plant response rating, Galium [4, 22]: 90; Plant response rating, Ragweed [5, 22]: 10; Plant response rating, Kochia (kochia (Kochia scoparia) [6]; [22]): 100; Plant response rating, Wheat [8, 22]: 10; Plant response rating, Ryegrass, Italian ([9]; 500 g ai/ha): 90; Plant response rating, Pigweed [10, 22]: 60; Plant response rating, Kochia (kochia (Kochia scoparia) [11]; 500 g ai/ha): 100; Plant response rating, Pigweed ([14]; 500 g ai/ha): 100; Plant response rating, Barnyardgrass [15, 22]: 80; Plant response rating, Corn (corn (Zea mays); [22]): 10; Plant response rating, Ryegrass, Italian [16, 22]: 30; Plant response rating, Foxtail, Giant ([17]; 500 g ai/ha): 100; Plant response rating, Foxtail, Giant [18, 22]: 80
5 | N#Cc1cccc(Oc2ncc(Cl)cn2)c1OCCCC(F)(F)F [Compound 72] | 0 | 20 | 80 | 0 | 60 | 10 | 70 | 90 | 0 | 20 | 60 | 10 | 100 | 25 | 60 | 30 | 20 | 10 | 90 | 40 | Plant response rating, Blackgrass [1, 20]: 0; Plant response rating, Barnyardgrass ([2]; 31 g ai/ha): 10; Plant response rating, Ragweed ([3]; 31 g ai/ha): 0; Plant response rating, Galium [4, 20]: 20; Plant response rating, Ragweed [5, 20]: 0; Plant response rating, Kochia (kochia (Kochia scoparia) [6]; [20]): 30; Plant response rating, Wheat [8, 20]: 0; Plant response rating, Ryegrass, Italian ([9]; 31 g ai/ha): 0; Plant response rating, Pigweed [10, 20]: 30; Plant response rating, Kochia (kochia (Kochia scoparia) [11]; 31 g ai/ha): 0; Plant response rating, Pigweed ([14]; 31 g ai/ha): 0; Plant response rating, Barnyardgrass [15, 20]: 10; Plant response rating, Corn (corn (Zea mays); [20]): 10; Plant response rating, Ryegrass, Italian [16, 20]: 0; Plant response rating, Foxtail, Giant ([17]; 31 g ai/ha): 10; Plant response rating, Foxtail, Giant [18, 20]: 10
